Assay results from ChEMBL document CHEMBL4825722, “Discovery of Potent Selective Nonzinc Binding Autotaxin Inhibitor BIO-32546” (ACS Med Chem Lett, 2021).
Values after ≈ are worked out from the molar mass of the structure shown.

What was measured:
hERG (KCNH2) = hERG (KCNH2) (Homo sapiens, UniProt Q12809); experiment: Inhibition of human ERG at 10 uM by automated patch-clamp assay relative to control
[1] = Clearance in rat at 1.0 mg/kg, iv; format: ADME, organism-based; details: in vivo, time <=24 hrs
[2] = Clearance in cynomolgus monkey at 0.2 mg/kg, iv; format: ADME, organism-based, Macaca fascicularis; details: in vivo
[3] = Volume of distribution at steady state in rat at 1.0 mg/kg, iv; format: ADME, organism-based; details: in vivo, read-out: Vdss
[4] = Volume of distribution at steady state in cynomolgus monkey at 0.2 mg/kg, iv; format: ADME, organism-based, Macaca fascicularis; details: in vivo, read-out: Vdss
[5] = Half life in rat at 1.0 mg/kg, iv; format: ADME, organism-based; details: in vivo
[6] = Half life in dog at 0.2 mg/kg, iv; format: ADME, organism-based, Canis lupus familiaris; details: in vivo
[7] = Half life in cynomolgus monkey at 0.2 mg/kg, iv; format: ADME, organism-based, Macaca fascicularis; details: in vivo
[8] = AUC (0 to 24 hrs) in rat at 1 mg/kg, iv; format: ADME, organism-based; set-up: time < 24 hr, route intravenous, dose 1 mg/kg; details: in vivo
[9] = AUC (0 to 24 hrs) in rat at 10 mg/kg, po; format: ADME, organism-based; set-up: time < 24 hr, route oral, dose 10 mg/kg; details: in vivo
[10] = AUC (0 to 24 hrs) in cynomolgus monkey at 0.2 mg/kg, iv; format: ADME, organism-based, Macaca fascicularis; set-up: time < 24 hr, route intravenous, dose 0.2 mg/kg; details: in vivo
[11] = Cmax in rat at 10 mg/kg, po; format: ADME, organism-based; set-up: route oral, dose 10 mg/kg; details: in vivo
[12] = Cmax in dog at 1.0 mg/kg, po; format: ADME, organism-based, Canis lupus familiaris; set-up: route oral, dose 1 mg/kg; details: in vivo
[13] = Cmax in cynomolgus monkey at 1.0 mg/kg, po; format: ADME, organism-based, Macaca fascicularis; set-up: route oral, dose 1 mg/kg; details: in vivo
[14] = Tmax in rat at 10 mg/kg, po; format: ADME, organism-based; details: in vivo
[15] = Tmax in dog at 1.0 mg/kg, po; format: ADME, organism-based, Canis lupus familiaris; details: in vivo
[16] = Tmax in cynomolgus monkey at 1.0 mg/kg, po; format: ADME, organism-based, Macaca fascicularis; details: in vivo
[17] = Oral bioavailability in cynomolgus monkey at 1.0 mg/kg; format: ADME, organism-based, Macaca fascicularis; details: in vivo
[18] = Solubility of the compound at pH 7.0 by shake flask method; details: buffer
[19] = Apparent permeability across apical to basolateral side in human Caco-2 cells incubated for 120 mins by lucifer yellow based LC-MS/MS analysis
[20] = Apparent permeability across basolateral to apical side in human Caco-2 cells incubated for 120 mins by lucifer yellow based LC-MS/MS analysis
[21] = Protein binding in human plasma assessed as unbound fraction at 2 uM by rapid equilibrium dialysis method; format: ADME, cell-free
Cytochrome P450 3A4 = Cytochrome P450 3A4 (Homo sapiens, UniProt P08684); experiment: Inhibition of CYP3A4 in human liver microsomes incubated for 15 mins in presence of NADPH by LC-MS/MS analysis; format: ADME
Cytochrome P450 2C19 = Cytochrome P450 2C19 (Homo sapiens, UniProt P33261); experiment: Inhibition of CYP2C19 in human liver microsomes incubated for 30 mins in presence of NADPH by LC-MS/MS analysis; format: ADME
Cytochrome P450 2C9 = Cytochrome P450 2C9 (Homo sapiens, UniProt P11712); experiment: Inhibition of CYP2C9 in human liver microsomes incubated for 15 mins in presence of NADPH by LC-MS/MS analysis; format: ADME
[22] = Total brain to plasma concentration ratio in rat at 10 mg/kg, po measured after 4 hrs; format: ADME, organism-based; details: brain and plasma, read-out: BPR
[23] = Volume of distribution at steady state in C57BL/6 mouse plasma at 2.32 mg/kg; format: ADME, organism-based; details: read-out: Vdss
[24] = Half life in C57BL/6 mouse plasma at 2.32 mg/kg; format: ADME, organism-based
[25] = AUC (0 to 24 hrs) in C57BL/6 mouse plasma at 2.32 mg/kg; format: ADME, organism-based; set-up: time < 24 hr, dose 2.32 mg/kg
[26] = AUC (0 to 24 hrs) in C57BL/6 mouse brain at 2.32 mg/kg, iv; format: ADME, organism-based; set-up: time < 24 hr, route intravenous, dose 2.32 mg/kg
[27] = AUC (0 to 24 hrs) in C57BL/6 mouse plasma at 10 mg/kg, po; format: ADME, organism-based; set-up: time < 24 hr, route oral, dose 10 mg/kg
[28] = Cmax in C57BL/6 mouse plasma at 2.32 mg/kg, iv; format: ADME, organism-based; set-up: route intravenous, dose 2.32 mg/kg
[29] = Cmax in C57BL/6 mouse brain at 2.32 mg/kg, iv; format: ADME, organism-based; set-up: route intravenous, dose 2.32 mg/kg
[30] = Cmax in C57BL/6 mouse plasma at 10 mg/kg, po; format: ADME, organism-based; set-up: route oral, dose 10 mg/kg
[31] = Cmax in C57BL/6 mouse brain at 10 mg/kg, po; format: ADME, organism-based; set-up: route oral, dose 10 mg/kg
[32] = Protein binding in C57BL/6 mouse plasma assessed as unbound fraction; format: ADME, cell-free
[33] = Unbound Cmax in C57BL/6 mouse brain at 10 mg/kg, po; format: ADME, organism-based; details: in vivo
Rattus norvegicus [34] = experiment: Effect on Sprague-Dawley rat CFA inflammatory […] model assessed as reduction in 20:4 LPA level at 0.1 mg/kg, po after 6 hrs by LC-MS/MS analysis; format: functional; set-up: scale not given: the % may be the effect or the level left
Rattus norvegicus [35] = experiment: Effect on Sprague-Dawley rat CFA inflammatory […] model assessed as reduction in 20:4 LPA level at 10 mg/kg, po after 6 hrs by LC-MS/MS analysis; format: functional; set-up: scale not given: the % may be the effect or the level left
[36] = biological target: Sphingosine 1-phosphate receptor 3 (Homo sapiens, UniProt Q99500); experiment: Inhibition of S1P3 (unknown origin)
[37] = biological target: T1, Sphingosine 1-phosphate receptor 4 (Homo sapiens, UniProt O95977); experiment: Inhibition of S1P4 (unknown origin)
T1 sequence (O95977 whole entry): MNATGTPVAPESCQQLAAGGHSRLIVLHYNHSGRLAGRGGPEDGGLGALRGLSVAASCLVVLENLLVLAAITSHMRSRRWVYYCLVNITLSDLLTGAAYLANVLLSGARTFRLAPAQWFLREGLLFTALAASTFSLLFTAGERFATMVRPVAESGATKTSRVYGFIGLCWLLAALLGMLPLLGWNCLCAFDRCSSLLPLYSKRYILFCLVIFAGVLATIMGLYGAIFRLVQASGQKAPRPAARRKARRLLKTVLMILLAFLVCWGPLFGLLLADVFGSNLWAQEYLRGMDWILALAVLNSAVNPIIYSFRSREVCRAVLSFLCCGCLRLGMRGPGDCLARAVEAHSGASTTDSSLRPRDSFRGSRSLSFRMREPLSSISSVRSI

[38] = biological target: Sphingosine 1-phosphate receptor 5 (Homo sapiens, UniProt Q9H228); experiment: Inhibition of S1P5 (unknown origin)
[39] = biological target: Lysophosphatidic acid receptor 2 (Homo sapiens, UniProt Q9HBW0); experiment: Inhibition of LPA2 (unknown origin)
[40] = biological target: Lysophosphatidic acid receptor 5 (Homo sapiens, UniProt Q9H1C0); experiment: Inhibition of LPA5 (unknown origin)
[41] = biological target: Voltage-gated inwardly rectifying potassium channel KCNH2 (Homo sapiens, UniProt Q12809); experiment: Inhibition of human ERG by automated patch-clamp assay
[42] = Drug concentration in mouse brain at 10 mg/kg, po; format: ADME, organism-based; details: in vivo
[43] = Drug concentration in Sprague-Dawley rat at 0.1 mg/kg, po after 6 hrs by LC-MS/MS analysis; format: ADME, organism-based; details: in vivo, read-out: Drug uptake
[44] = Drug concentration in Sprague-Dawley rat at 0.3 mg/kg, po after 6 hrs by LC-MS/MS analysis; format: ADME, organism-based; details: in vivo, read-out: Drug uptake
[45] = Drug concentration in Sprague-Dawley rat at 10 mg/kg, po after 6 hrs by LC-MS/MS analysis; format: ADME, organism-based; details: in vivo, read-out: Drug uptake

Chain of Cytochrome P450 3A4 (P08684 whole entry): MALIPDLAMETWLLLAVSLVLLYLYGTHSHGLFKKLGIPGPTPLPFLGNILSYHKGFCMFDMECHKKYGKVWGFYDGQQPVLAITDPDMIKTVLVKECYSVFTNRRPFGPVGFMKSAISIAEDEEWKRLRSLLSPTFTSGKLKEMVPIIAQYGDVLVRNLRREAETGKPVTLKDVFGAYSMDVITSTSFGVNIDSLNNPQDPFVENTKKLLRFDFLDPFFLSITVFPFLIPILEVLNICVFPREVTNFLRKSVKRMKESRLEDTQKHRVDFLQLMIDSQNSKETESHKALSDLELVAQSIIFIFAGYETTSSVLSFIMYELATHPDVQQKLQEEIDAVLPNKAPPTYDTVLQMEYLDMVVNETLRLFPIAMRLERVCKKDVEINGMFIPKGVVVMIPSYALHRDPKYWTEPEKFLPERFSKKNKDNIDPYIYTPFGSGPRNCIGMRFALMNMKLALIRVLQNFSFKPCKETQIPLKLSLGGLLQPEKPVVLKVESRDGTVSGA
Chain of Lysophosphatidic acid receptor 2 (Q9HBW0 whole entry): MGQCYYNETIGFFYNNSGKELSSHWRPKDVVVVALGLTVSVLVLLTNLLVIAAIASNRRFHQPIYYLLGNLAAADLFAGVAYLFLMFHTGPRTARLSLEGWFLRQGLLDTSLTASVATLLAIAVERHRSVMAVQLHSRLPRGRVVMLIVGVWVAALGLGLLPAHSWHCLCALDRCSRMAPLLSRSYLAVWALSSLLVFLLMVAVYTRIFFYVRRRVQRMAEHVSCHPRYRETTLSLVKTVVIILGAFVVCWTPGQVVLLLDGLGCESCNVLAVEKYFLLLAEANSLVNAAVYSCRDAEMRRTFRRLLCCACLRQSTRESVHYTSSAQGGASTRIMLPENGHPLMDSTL
Chain of Lysophosphatidic acid receptor 5 (Q9H1C0 whole entry): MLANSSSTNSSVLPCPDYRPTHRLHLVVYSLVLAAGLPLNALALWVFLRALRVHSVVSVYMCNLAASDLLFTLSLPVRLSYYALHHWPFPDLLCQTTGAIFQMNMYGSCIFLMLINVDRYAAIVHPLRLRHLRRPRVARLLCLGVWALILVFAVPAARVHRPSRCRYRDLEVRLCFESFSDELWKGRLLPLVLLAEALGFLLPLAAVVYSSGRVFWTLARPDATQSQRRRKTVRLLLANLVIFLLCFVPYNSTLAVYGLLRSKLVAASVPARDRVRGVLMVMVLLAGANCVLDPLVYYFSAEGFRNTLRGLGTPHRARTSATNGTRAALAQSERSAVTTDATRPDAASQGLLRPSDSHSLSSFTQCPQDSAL
Chain of Sphingosine 1-phosphate receptor 5 (Q9H228 whole entry): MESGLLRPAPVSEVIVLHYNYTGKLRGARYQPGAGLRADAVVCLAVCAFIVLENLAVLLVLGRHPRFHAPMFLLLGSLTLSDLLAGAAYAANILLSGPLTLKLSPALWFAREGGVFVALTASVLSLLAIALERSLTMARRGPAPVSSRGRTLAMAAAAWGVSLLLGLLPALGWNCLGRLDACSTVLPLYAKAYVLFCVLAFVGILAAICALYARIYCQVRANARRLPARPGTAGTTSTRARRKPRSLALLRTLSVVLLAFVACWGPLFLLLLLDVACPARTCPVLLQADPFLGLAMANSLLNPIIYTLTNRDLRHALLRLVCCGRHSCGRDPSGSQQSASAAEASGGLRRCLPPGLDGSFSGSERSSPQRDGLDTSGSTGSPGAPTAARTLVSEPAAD
Chain of Sphingosine 1-phosphate receptor 3 (Q99500 whole entry): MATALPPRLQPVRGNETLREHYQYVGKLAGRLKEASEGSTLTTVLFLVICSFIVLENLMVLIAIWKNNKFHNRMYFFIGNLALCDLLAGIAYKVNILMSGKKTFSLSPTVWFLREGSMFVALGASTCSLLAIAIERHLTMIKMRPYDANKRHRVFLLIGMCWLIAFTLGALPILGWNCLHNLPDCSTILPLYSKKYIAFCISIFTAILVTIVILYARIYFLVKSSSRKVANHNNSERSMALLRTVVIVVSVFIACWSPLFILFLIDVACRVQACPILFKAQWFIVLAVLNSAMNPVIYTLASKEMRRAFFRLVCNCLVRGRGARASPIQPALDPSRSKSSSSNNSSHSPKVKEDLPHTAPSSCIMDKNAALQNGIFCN
Chain of Cytochrome P450 2C19 (P33261 whole entry): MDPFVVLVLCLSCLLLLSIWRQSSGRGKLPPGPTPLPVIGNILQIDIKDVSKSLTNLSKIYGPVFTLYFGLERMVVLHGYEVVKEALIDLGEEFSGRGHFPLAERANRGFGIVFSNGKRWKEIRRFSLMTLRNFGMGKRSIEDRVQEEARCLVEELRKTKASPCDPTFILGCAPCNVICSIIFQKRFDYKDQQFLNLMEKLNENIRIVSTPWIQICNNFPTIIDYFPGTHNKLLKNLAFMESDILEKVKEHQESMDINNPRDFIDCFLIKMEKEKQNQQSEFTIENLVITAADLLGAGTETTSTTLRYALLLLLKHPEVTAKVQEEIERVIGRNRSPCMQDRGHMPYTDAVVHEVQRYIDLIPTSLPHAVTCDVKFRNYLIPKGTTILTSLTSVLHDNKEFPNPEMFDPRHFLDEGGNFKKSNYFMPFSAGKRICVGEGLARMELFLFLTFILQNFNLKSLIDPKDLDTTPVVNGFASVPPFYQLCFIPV
Chain of hERG (KCNH2) (Q12809 whole entry): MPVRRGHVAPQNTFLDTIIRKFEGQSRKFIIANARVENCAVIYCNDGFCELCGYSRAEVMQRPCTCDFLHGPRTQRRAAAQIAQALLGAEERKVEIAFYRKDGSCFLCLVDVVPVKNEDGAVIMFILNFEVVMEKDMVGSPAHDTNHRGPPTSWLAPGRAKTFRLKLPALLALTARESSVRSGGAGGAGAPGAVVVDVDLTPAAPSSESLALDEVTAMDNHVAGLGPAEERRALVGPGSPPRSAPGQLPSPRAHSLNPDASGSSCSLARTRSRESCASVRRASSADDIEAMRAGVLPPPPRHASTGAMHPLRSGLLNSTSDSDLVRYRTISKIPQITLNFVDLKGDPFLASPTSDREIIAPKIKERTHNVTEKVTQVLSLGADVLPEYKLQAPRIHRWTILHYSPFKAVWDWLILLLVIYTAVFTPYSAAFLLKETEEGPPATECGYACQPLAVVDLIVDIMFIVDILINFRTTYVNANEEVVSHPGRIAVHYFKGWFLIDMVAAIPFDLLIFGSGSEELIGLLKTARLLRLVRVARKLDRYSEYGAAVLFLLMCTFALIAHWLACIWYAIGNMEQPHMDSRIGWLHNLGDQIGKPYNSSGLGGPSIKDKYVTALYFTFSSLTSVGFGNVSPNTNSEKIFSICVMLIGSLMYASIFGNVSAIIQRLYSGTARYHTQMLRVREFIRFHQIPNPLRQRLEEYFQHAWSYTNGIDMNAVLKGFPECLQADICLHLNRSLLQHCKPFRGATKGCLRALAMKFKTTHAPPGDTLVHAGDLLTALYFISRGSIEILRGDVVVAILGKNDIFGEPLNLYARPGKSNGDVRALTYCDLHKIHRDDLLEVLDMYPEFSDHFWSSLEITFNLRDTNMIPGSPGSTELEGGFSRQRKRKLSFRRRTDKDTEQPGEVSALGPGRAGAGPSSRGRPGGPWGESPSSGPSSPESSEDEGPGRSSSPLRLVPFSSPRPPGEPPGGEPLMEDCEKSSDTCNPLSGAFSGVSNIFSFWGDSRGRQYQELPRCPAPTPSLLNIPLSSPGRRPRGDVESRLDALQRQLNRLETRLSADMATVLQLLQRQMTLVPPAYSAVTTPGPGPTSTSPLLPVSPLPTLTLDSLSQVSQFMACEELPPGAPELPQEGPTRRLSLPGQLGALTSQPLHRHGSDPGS
Chain of Voltage-gated inwardly rectifying potassium channel KCNH2 (Q12809 whole entry): as above

SMILES: C[C@@H](c1ccc2ccc(O[C@H]3CC[C@@H](C(F)(F)F)CC3)c(C(F)(F)F)c2c1)N1C2CCC1CC(C(=O)O)C2 (some centres undefined)
- inhibition at 10 µM (hERG (KCNH2)): 21.3%
- clearance [1]: 29 mL/min/kg
- clearance [2]: 9.3 mL/min/kg
- Vd [3]: 3 L/kg
- Vd [4]: 2.4 L/kg
- half-life [5]: 3 h
- half-life [6]: 14 h
- half-life [7]: 4 h
- AUC(0-t) at 24 h [8]: 594 ng·h/mL
- AUC(0-t) at 24 h [9]: 3970 ng·h/mL
- AUC(0-t) at 24 h [10]: 369 ng·h/mL
- Cmax [11]: 813 ng/mL
- Cmax [12]: 376 ng/mL
- Cmax [13]: 89 ng/mL
- Tmax [14]: 1.6 h
- Tmax [15]: 2 h
- Tmax [16]: 4 h
- bioavailability [17]: 34%
- solubility thermodynamic [18]: 73.2 µg/mL (≈ 135 µM)
- Papp A→B at 2 h [19]: 16.8 ×10⁻⁶ cm/s
- Papp B→A at 2 h [20]: 40.3 ×10⁻⁶ cm/s
- Fu [21]: 0.66%
- IC50 (Cytochrome P450 3A4): > 10 µM
- IC50 (Cytochrome P450 2C19): > 10 µM
- IC50 (Cytochrome P450 2C9): > 10 µM
- Kp at 4 h [22]: 0.2
- Vd [23]: 2.36 L/kg
- half-life [24]: 4.72 h
- AUC(0-t) at 24 h [25]: 6170 ng·h/mL
- AUC(0-t) at 24 h [26]: 3020 ng·h/mL
- AUC(0-t) at 24 h [27]: 12200 ng·h/mL
- Cmax [28]: 1270 ng/mL
- Cmax [29]: 274 ng/mL
- Cmax [30]: 1070 ng/mL
- Cmax [31]: 823 ng/mL
- Fu [32]: 0.599%
- fCmax [33]: 1.5 nM
- Activity (Rattus norvegicus [34]): 89%
- Activity (Rattus norvegicus [35]): 48%
- IC50 [36]: > 10 µM
- IC50 [37]: > 10 µM
- IC50 [38]: > 10 µM
- IC50 [39]: > 10 µM
- IC50 [40]: > 10 µM
- IC50 [41]: > 10 µM
- AUC [42]: 8840 ng·h/mL
- concentration at 6 h [43]: 0.95 ng/mL
- concentration at 6 h [44]: 4.3 ng/mL
- concentration at 6 h [45]: 188 ng/mL
